From patent US20010005752A1, “Fluorescent dyes (AIDA) for solid phase and solution phase screening” (priority 1998, published 2001)

Assays:
Format in all cases: physicochemical
[1] = UV-Vis absorption spectroscopy; conditions: for Absorption λmax / ε (at absorption λmax): acetonitrile/2% DMSO
Method: UV-Vis absorption spectroscopy is performed on a Cary 1E spectrophotometer. […]
[…] […] From each stock solution, 5 dilutions with concentrations of 2.5 μm, 10 μM, 17 μM, 25 μm and 35 μM are made. UV-spectra of each dilution are recorded from 200 to 400 nm, using a quarz cuvette with a pathlength of 1 cm. […] A linear fit is carried out for each series of measurements. The extinction coefficient ε at 337 nm is given by the slope of the linear regression.

[2] = Steady-state fluorescence spectroscopy (excitation and emission spectra); conditions: for Emission range in parenthesis / Emission λmax / Excitation range in parenthesis / Excitation λmax: acetonitrile/2% DMSO
Method: Steady-state fluorescence measurements are performed on a SLM 8000C spectro-fluorometer equipped with JD490 photomultipliers and a 450 W Xenon Arclamp (SLM Instruments, Urbana, Ill.).
[…] Spectral bandwidths are set to 1 and 4 nm for excitation and emission, respectively. Spectra are recorded in single photon counting mode. Changes in lamp intensity are corrected with a quantum counter in the reference channel, measured in slow mode. Gain is set to x 100 with a high voltage (HV) of 640 V. Integration time is 2 seconds. For excitation spectra measurements, the emission wavelength is set to 397 nm and the sample is excited from 200 to 400 nm. For recording emission spectra, the sample is excited at 342 nm and the emission is recorded from 350 to 540 nm. The data are averaged over two scans.

[3] = Quantum yield determination with chininsulfate as standard; conditions: 25 μM in THF
Method: The quantum yield of 4e is determined using chininsulfate as a standard [Melhuish, 1961].
The point of intersection between the UV spectra of 4e and chininsulfate (CS) is determined by measurements of a solution of the two substances on a Cary 1E spectrophotometer. Concentrations were 25 μM in THF for 4e and 50 mM in 1N H2SO4 for CS. Spectra are recorded from 260 nm to 380 nm using a quartz cuvette with an optical pathlength of 10 mm, and blank corrected by subtracting the solvent absorption. The point of intersection of the two resulting UV spectra is determined to be at 348.3 nm, corresponding to 352.8 nm on the SLM-8000 C fluorometer due to monochromator shifts. The fluorescence emission spectra of 4e and CS are recorded using the same solutions as for the UV-measurements in single photon counting mode. Lamp intensity changes are corrected with a quantum counter in the reference channel, measured in slow mode. Gain is set at x 100, high voltage applied was 830 V. Integration time was 0.5 seconds.
Spectral bandwidths are set at 1 nm for excitation, 2 nm and 4 nm for emission.
For the recording of the emission spectra, excitation is set to 352.8 and emission is monitored from 360 to 550 nm for IAE and 360 to 650 nm for CS.

[4] = Calculation of R0 (Förster distance) between 4e and NATA; conditions: 4e acceptor, NATA donor, THF
Method: The emission spectrum of NATA is measured at a concentration of 15 μM in THF, using a 750 μl quartz cuvette with an optical pathlength of 10 mm. Measuring mode is single photon counting. Changes in lamp intensity are corrected using a quantum counter in the reference channel. The gain is set at x 100, the high voltage applied was 640 V and the integration time is 2 seconds. The fluorescence emission is corrected for photometric accuracy of the system by multiplication with correction factors obtained by standard lamp calibration. Slit widths are set at 1 nm and 4 nm for excitation and emission, respectively. […] R0 is calculated using the formula R0=(9.97×10^3)(Jκ^2η^-4 θNATA)^1/6 Å where κ^2 is an orientation factor of the relative orientation in space of the transition dipoles of the donor and acceptor chromophores. […] J is the spectral overlap integral which can be approximated from […](λ)λ^4Δλ (2) where FNATA is the corrected fluorescence emission of the donor, the sum normalized to unity, ε4e is the extinction coefficient of the acceptor at wavelength λ, and DS is the incremental detection range.

[5] = Picosecond time-resolved fluorescence spectroscopy (fluorescence lifetime); conditions: 25 μM in THF, emission 400 nm
Method: Picosecond time-resolved fluorescence measurements are recorded according to the single photon counting technique [Lakowicz, 1983 p 52-93, 112-153, 156-185]. An Ar^+-pumped Ti:Sapphire laser (model MIRA 900, Coherent, Santa Clara, USA) provided under mode-locked conditions ultrashort pulses (FWHM=150 fs) with a frequency of 75 MHz. To reduce the repetition rate to 4.7 MHz, a pulse picker (model 9200, Coherent, Santa Clara, USA) is inserted into the beam. […] Fluorescence photons are collected in a Spex 1681 single grating monochromator (Spex, Edison, USA) and detected with the Hamamatsu R3809U microchannel plate (Hamamatsu, Shimokanzo, Japan). […] The voltage values which correspond to the time passed between excitation and emission of a fluorescence photon in a single experiment are stored in the Spectrum Master 921 (Ortec, Oak Ridge, USA) which is connected to the multichannel emulation program Maestro (Ortec, Oak Ridge, USA). […]
where A represents the background noise of the experiment, bi represent the pre-exponential terms of the according fluorescence lifetimes τi, and δt is an optional temporal shift term to compensate for shifts of the instrument response. […]
The time resolved decay of 4e is determined at a concentration of 25 μM in THF. Excitation is from 350 nm 380 nm, fluorescence emission is detected at 400 nm with slit widths set to 0.5 nm. […]

Q: What does the source list for O=C(O)c1ccc(-n2nc(-c3ccc([N+](=O)[O-])cc3)c3ccccc32)cc1 [4f]?
A: Absorption λmax [1]: 354 nm; ε (at absorption λmax) [1]: 25482 M⁻¹ cm⁻¹; Emission range in parenthesis [2]: 470-670 nm; Emission λmax [2]: 554 nm; Excitation range in parenthesis [2]: 320-400 nm; Excitation λmax [2]: 368 nm

Q: For O=C(O)c1ccc(-n2nc(-c3ccccc3)c3ccccc32)cc1 [4a], which “Absorption λmax” value [1] is on record?
A: 328 nm

Q: What about the “ε (at absorption λmax)” value [1] of the same compound?
A: 22569 M⁻¹ cm⁻¹

Q: And the “Emission range in parenthesis” value [2]?
A: 360-450 nm

Q: What about the “Emission λmax” value [2] of the same compound?
A: 396 nm

Q: What about the “Excitation range in parenthesis” value [2] of the same compound?
A: 300-340 nm

Q: What about the “Excitation λmax” value [2] of the same compound?
A: 328 nm

Q: With O=C(O)c1ccc(-c2nn(-c3ccc(C(=O)O)cc3)c3ccc([N+](=O)[O-])cc23)cc1 [4k, 4-[3-(4-carboxy-phenyl)-5-nitro-1H-indazol-1-yl]-benzoic Acid] as the compound, how does the “Absorption λmax” value [1] read?
A: 328 nm

Q: And the “ε (at absorption λmax)” value [1]?
A: 22622 M⁻¹ cm⁻¹

Q: And the “Emission range in parenthesis” value [2]?
A: 450-620 nm

Q: What about the “Emission λmax” value [2] of the same compound?
A: 524 nm

Q: And the “Excitation range in parenthesis” value [2]?
A: 320-360 nm

Q: What about the “Excitation λmax” value [2] of the same compound?
A: 331 nm

Q: Which results are given for C=CCOC(=O)c1ccc(-c2nn(-c3ccc(C(=O)O)cc3)c3ccccc23)cc1 [4e, 4-[3-(4-allyloxycarbonylphenyl)-1H-indazol-1-yl]-benzoic acid]?
A: absorption maximum ([1]; THF): 342 nm; absorption coefficient ε at 337 nm ([1]; THF, 337 nm): 29926 M⁻¹ cm⁻¹; Absorption λmax [1]: 335 nm; ε (at absorption λmax) [1]: 34134 M⁻¹ cm⁻¹; photophysical and photochemical stability [2]: photophysically and photochemically stable; maximal emission intensity (wavelength) ([2]; 1 μM in THF, excitation at 342 nm): 403 nm; Stoke shift ([2]; THF): about 60 nm; Emission range in parenthesis [2]: 360-480 nm; Emission λmax [2]: 398 nm; Excitation range in parenthesis [2]: 310-360 nm; Excitation λmax [2]: 337 nm; quantum yield [3]: 0.591; R0 (Förster distance) of the dye pair with NATA [4]: 25.2 - 26.3 Å; fluorescence lifetime (mono-exponential decay) [5]: 1.055±0.117 nsec; relative amplitude of lifetime component [5]: 99.73%

Q: For NC(=O)c1ccc(-c2nn(-c3ccc(C(=O)O)cc3)c3ccc([N+](=O)[O-])cc23)cc1 [4l, 4-[3-(4-carbamoyl-phenyl)-5-nitro-1H-indazol-1-yl]-benzoic Acid], which “Absorption λmax” value [1] is on record?
A: 326 nm

Q: What about the “ε (at absorption λmax)” value [1] of the same compound?
A: 17252 M⁻¹ cm⁻¹

Q: And the “Emission range in parenthesis” value [2]?
A: 450-620 nm

Q: And the “Emission λmax” value [2]?
A: 527 nm

Q: What about the “Excitation range in parenthesis” value [2] of the same compound?
A: 310-360 nm

Q: And the “Excitation λmax” value [2]?
A: 331 nm

Q: With NC(=O)c1ccc(-c2nn(-c3ccc(C(=O)O)cc3)c3ccccc23)cc1 [4c, 4-[3-(4-carbamoyl-phenyl)-1H-indazol-1-yl]-benzoic acid] as the compound, how does the “Absorption λmax” value [1] read?
A: 332 nm

Q: And the “ε (at absorption λmax)” value [1]?
A: 30665 M⁻¹ cm⁻¹

Q: And the “Emission range in parenthesis” value [2]?
A: 360-500 nm

Q: And the “Emission λmax” value [2]?
A: 393 nm

Q: What about the “Excitation range in parenthesis” value [2] of the same compound?
A: 300-360 nm

Q: What about the “Excitation λmax” value [2] of the same compound?
A: 334 nm

Q: For COC(=O)c1ccc(-c2nn(-c3ccc(C(=O)O)cc3)c3ccccc23)cc1 [4d], which “Absorption λmax” value [1] is on record?
A: 334 nm

Q: What about the “ε (at absorption λmax)” value [1] of the same compound?
A: 33114 M⁻¹ cm⁻¹

Q: And the “Emission range in parenthesis” value [2]?
A: 360-500 nm

Q: And the “Emission λmax” value [2]?
A: 396 nm

Q: And the “Excitation range in parenthesis” value [2]?
A: 300-360 nm

Q: What about the “Excitation λmax” value [2] of the same compound?
A: 336 nm

Q: Which “Absorption λmax” value [1] does the source give for O=C(O)c1ccc(-c2nn(-c3ccc(C(=O)O)cc3)c3ccccc23)cc1 [4b, 1,3-Bis-(4-carboxyphenyl)-1H-indazole] here?
A: 334 nm

Q: And the “ε (at absorption λmax)” value [1]?
A: 29152 M⁻¹ cm⁻¹

Q: And the “Emission range in parenthesis” value [2]?
A: 360-500 nm

Q: What about the “Emission λmax” value [2] of the same compound?
A: 396 nm

Q: And the “Excitation range in parenthesis” value [2]?
A: 300-360 nm

Q: What about the “Excitation λmax” value [2] of the same compound?
A: 335 nm

Q: What does the source list for COc1ccc(-c2nn(-c3ccc(C(=O)O)cc3)c3cc(OC)ccc23)cc1 [4h]?
A: Absorption λmax [1]: 327 nm; ε (at absorption λmax) [1]: 27650 M⁻¹ cm⁻¹; Emission range in parenthesis [2]: 370-600 nm; Emission λmax [2]: 439 nm; Excitation range in parenthesis [2]: 300-350 nm; Excitation λmax [2]: 330 nm

Q: With Cc1ccc2c(-c3ccc([N+](=O)[O-])cc3)nn(-c3ccc(C(=O)O)cc3)c2c1 [4j] as the compound, how does the “Absorption λmax” value [1] read?
A: 358 nm

Q: And the “ε (at absorption λmax)” value [1]?
A: 24967 M⁻¹ cm⁻¹

Q: What about the “Emission range in parenthesis” value [2] of the same compound?
A: 490-700 nm

Q: What about the “Emission λmax” value [2] of the same compound?
A: 565 nm

Q: What about the “Excitation range in parenthesis” value [2] of the same compound?
A: 340-420 nm

Q: And the “Excitation λmax” value [2]?
A: 370 nm

Q: For O=C(O)c1ccc(-n2nc(-c3ccccc3)c3ccc4ccccc4c32)cc1 [4-(3-phenyl-benzo[g]indazol-1-yl)-benzoic acid, reference compound], which “fluorescence emission (relative to 1,3-diaryl-1H-indazoles)” value [2] is on record?
A: dramatically reduced

Q: What does the source list for O=C(O)c1ccc(-c2nn(-c3ccc([N+](=O)[O-])cc3)c3ccccc23)cc1 [4i]?
A: Absorption λmax [1]: 361 nm; ε (at absorption λmax) [1]: 31261 M⁻¹ cm⁻¹; Emission range in parenthesis [2]: 470-670 nm; Emission λmax [2]: 551 nm; Excitation range in parenthesis [2]: 320-420 nm; Excitation λmax [2]: 374 nm

Q: Which “Absorption λmax” value [1] does the source give for O=C(O)c1ccc(-n2nc(-c3ccc(Cl)cc3)c3ccc(Cl)cc32)cc1 [4g] here?
A: 328 nm

Q: And the “ε (at absorption λmax)” value [1]?
A: 29157 M⁻¹ cm⁻¹

Q: What about the “Emission range in parenthesis” value [2] of the same compound?
A: 350-450 nm

Q: What about the “Emission λmax” value [2] of the same compound?
A: 364 nm

Q: What about the “Excitation range in parenthesis” value [2] of the same compound?
A: 310-350 nm

Q: And the “Excitation λmax” value [2]?
A: 328 nm
